As usually defined, the Ki is the dissociation constant of the complex between target and ligand, obtained from inhibition or displacement. Read a high Ki as lower affinity.

The target of experiment [1] is T1, Solute carrier family 15 member 2 (Rattus norvegicus, UniProt Q63424).
T1 sequence (Q63424 whole entry): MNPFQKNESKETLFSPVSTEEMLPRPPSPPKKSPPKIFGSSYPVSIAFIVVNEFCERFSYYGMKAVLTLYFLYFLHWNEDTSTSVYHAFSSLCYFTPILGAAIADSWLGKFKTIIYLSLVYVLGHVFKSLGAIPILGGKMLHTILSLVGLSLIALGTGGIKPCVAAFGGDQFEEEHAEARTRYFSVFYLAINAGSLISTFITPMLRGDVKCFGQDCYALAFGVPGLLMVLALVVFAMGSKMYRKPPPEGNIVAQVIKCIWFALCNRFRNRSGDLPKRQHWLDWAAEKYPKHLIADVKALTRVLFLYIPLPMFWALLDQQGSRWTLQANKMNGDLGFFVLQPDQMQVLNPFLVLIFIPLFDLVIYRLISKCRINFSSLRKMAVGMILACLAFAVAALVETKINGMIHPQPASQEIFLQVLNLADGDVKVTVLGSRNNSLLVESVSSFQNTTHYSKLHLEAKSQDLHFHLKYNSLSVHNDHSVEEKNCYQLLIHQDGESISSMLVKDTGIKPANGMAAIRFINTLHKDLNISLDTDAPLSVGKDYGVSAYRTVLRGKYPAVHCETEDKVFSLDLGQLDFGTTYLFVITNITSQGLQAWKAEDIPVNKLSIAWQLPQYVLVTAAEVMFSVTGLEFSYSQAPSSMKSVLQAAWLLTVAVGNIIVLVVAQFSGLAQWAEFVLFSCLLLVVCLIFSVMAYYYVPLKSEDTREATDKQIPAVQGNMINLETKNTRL
In words: TP_TRANSPORTER: inhibition of Gly-Sar uptake in PEPT2-expressing LLC-PK1 cells. It is filed as functional, cell-based.

In experiment [2] the target is T2, Solute carrier family 15 member 1 (Rattus norvegicus, UniProt P51574).
T2 sequence (P51574 whole entry): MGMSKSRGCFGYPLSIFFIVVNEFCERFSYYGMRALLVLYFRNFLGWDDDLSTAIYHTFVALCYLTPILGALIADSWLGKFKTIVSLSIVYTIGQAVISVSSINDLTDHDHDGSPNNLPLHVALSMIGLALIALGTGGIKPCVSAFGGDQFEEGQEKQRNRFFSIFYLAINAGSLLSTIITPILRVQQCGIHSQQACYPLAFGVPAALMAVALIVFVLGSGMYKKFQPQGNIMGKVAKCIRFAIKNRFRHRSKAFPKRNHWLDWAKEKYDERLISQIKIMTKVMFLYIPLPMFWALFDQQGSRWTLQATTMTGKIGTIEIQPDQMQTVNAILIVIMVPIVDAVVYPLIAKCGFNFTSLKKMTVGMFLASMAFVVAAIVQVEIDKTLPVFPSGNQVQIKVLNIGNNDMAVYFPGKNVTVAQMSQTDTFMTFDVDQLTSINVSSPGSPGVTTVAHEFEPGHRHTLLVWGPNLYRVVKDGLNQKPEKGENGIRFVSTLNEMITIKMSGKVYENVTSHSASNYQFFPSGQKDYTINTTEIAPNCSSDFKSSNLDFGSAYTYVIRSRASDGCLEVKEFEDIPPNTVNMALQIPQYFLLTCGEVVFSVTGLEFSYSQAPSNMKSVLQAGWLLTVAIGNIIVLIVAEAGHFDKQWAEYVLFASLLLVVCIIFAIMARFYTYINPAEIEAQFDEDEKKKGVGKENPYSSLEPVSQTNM
In words: TP_TRANSPORTER: inhibition of Gly-Sar uptake in PEPT1-expressing LLC-PK1 cells. It is filed as functional, cell-based.

Take `COc1ccc(Cl)cc1C(=O)NCCc1ccc(S(=O)(=O)NC(=O)NC2CCCCC2)cc1` [GLYBURIDE]: the Ki in experiment [1] stood at 7.8 µM; in experiment [2], 25 µM.

The values above are taken from ChEMBL document CHEMBL2073807, “Effects of glibenclamide on glycylsarcosine transport by the rat peptide transporters PEPT1 and PEPT2” (Br J Pharmacol, 1999).
